Assay results: paper PMC7377239, “Cardiovascular Effects of Polychlorinated Biphenyls and Their Major Metabolites” (Environmental Health Perspectives, 2020)
Where a name gives a salt, the structure may show the parent alone.

Test system: iPSC-CMs, iPSC-ECs and HUVECs phenotypes
Test: ToxPi 2.0 integration of POD values and physicochemical descriptors
Design: species or system human
Conditions: ToxPi-scaled (0-1) score; for huvec.cyto.24hr / huvec.mito.24hr / huvec.mitoint.24hr / huvec.nma.24hr / huvec.tc.24hr / huvec.mtl.18hr / huvec.tlps.18hr / huvec.tta.18hr / huvec.ttl.18hr: HUVECs; for huvec.mtl.18hr / huvec.tlps.18hr / huvec.tta.18hr / huvec.ttl.18hr / endo.mtl.18hr / endo.tlps.18hr / endo.tta.18hr / endo.ttl.18hr: tube formation; for cm.amp.avg.90min / cm.amp.cv.90min / cm.bpm.90min / cm.cam.90min / cm.decay.rise.90min / cm.mii.90min / cm.mito.90min / cm.spacing.cv.90min / cm.tc.90min / cm.amp.avg.24hrs / cm.amp.cv.24hrs / cm.bpm.24hrs / cm.cam.24hrs / cm.decay.rise.24hrs / cm.mii.24hrs / cm.mito.24hrs / cm.spacing.cv.24hrs / cm.tc.24hrs: iPSC cardiomyocytes; for endo.cyto.24hr / endo.mito.24hr / endo.mitoint.24hr / endo.nma.24hr / endo.tc.24hr / endo.mtl.18hr / endo.tlps.18hr / endo.tta.18hr / endo.ttl.18hr: iPSC endothelial cells
From the text: Phenotypic responses were quantitatively assessed using concentration–response modeling as detailed elsewhere ([Sirenko et al. 2017]). Briefly, phenotypic readouts were normalized to vehicle controls and fit to a four-parameter logistic model in R studio software (version 3.1.1; R Development Core Team). Following EPA guidance on dose–response modeling, a cutoff of one standard deviation across means of vehicle control (i.e., 0.5% vol/vol DMSO in cell culture media) wells was applied to determine the point-of-departure (POD) values ([U.S. EPA 2012]). In the absence of a concentration–response, the highest tested concentration (i.e., 100μM ) was assigned as “no observable adverse effect level.” The concentration–response assessment R script, as well as templates for vehicle and concentration–response data, are available as a supplement to Sirenko et al. ([2017]). The ability of physicochemical properties to predict differences in PODs were evaluated by multiregression and mixed-effects modeling using R.
POD values were then integrated using ToxPi 2.0 ([Marvel et al. 2018]) software. In ToxPi, each slice is representative of cell type– and time-point–specific phenotypes. The area of each slice is proportional to the relative value (e.g., bioactivity or physicochemical descriptor value) of the chemical within the data set. ToxPi scores were used to rank PCBs and their metabolites according to their overall bioactivity and to determine variability in total observable biological responses and chemical characteristics for each major metabolite class and chlorination status (mono-, hexa-chlorinated). Additional visualizations such as dumbbell and principal components analysis plots were generated in R Studio (version 1.1.456; R version 3.5.1; R Development Core Team) using the ggplot2 package.

| Compound | huvec.cyto.24hr | huvec.mito.24hr | huvec.mitoint.24hr | huvec.nma.24hr | huvec.tc.24hr | huvec.mtl.18hr | huvec.tlps.18hr | huvec.tta.18hr | huvec.ttl.18hr | cm.amp.avg.90min | cm.amp.cv.90min | cm.bpm.90min | cm.cam.90min | cm.decay.rise.90min | cm.mii.90min | cm.mito.90min | cm.spacing.cv.90min | cm.tc.90min | cm.amp.avg.24hrs | cm.amp.cv.24hrs | other results |
| --- | --- | --- | --- | --- | --- | --- | --- | --- | --- | --- | --- | --- | --- | --- | --- | --- | --- | --- | --- | --- | --- |
| O=S(=O)(O)Oc1ccc(-c2cccc(Cl)c2)cc1Cl [4-PCB 11 sulfate] | 0.07428 | 0.09457 | 0.4402 | 0.4481 | 0.07428 | 0.4352 | 0.2468 | 0 | 0 | 0.5438 | 0.207 | 0.3056 | 0 | 0.417 | 0 | 0 | 0.1011 | 0 | 0.2154 | 0.3772 | cm.bpm.24hrs: 0.2853; cm.cam.24hrs: 0.3798; cm.decay.rise.24hrs: 0.3284; cm.mii.24hrs: 0.1874; cm.mito.24hrs: 0.571; cm.spacing.cv.24hrs: 0.2596; cm.tc.24hrs: 0.6332; endo.cyto.24hr: 0; endo.mito.24hr: 0; endo.mitoint.24hr: 0; endo.nma.24hr: 0; endo.tc.24hr: 0; endo.mtl.18hr: 0.1436; endo.tlps.18hr: 0.3311; endo.tta.18hr: 0.1419; endo.ttl.18hr: 0.1256 |
| Clc1ccc(Cl)c(-c2cc(Cl)ccc2Cl)c1 [PCB 52, 2,2′,5,5′-tetrachlorobiphenyl] | 0.5178 | 0.613 | 0.5572 | 0.3829 | 0.5178 | 0 | 0 | 0 | 0 | 0.5597 | 0.1687 | 0.3203 | 0.422 | 0.1841 | 0.8432 | 0.3815 | 0.1566 | 0.3874 | 0.3455 | 0.4979 | cm.bpm.24hrs: 0.3481; cm.cam.24hrs: 0.3478; cm.decay.rise.24hrs: 0.2921; cm.mii.24hrs: 0.2822; cm.mito.24hrs: 0.5634; cm.spacing.cv.24hrs: 0.2305; cm.tc.24hrs: 0.578; endo.cyto.24hr: 0; endo.mito.24hr: 0; endo.mitoint.24hr: 0; endo.nma.24hr: 0; endo.tc.24hr: 0; endo.mtl.18hr: 0.02365; endo.tlps.18hr: 0; endo.tta.18hr: 0; endo.ttl.18hr: 0 |
| Clc1cccc(-c2cccc(Cl)c2)c1 [PCB 11, 3,3′-Dichlorobiphenyl] | 0.2265 | 0.2773 | 0.5099 | 0.3029 | 0.2265 | 0 | 0.1652 | 0 | 0 | 0.6423 | 0.3673 | 0.1538 | 0.6939 | 0.6828 | 0.779 | 0.7948 | 0.06972 | 0.7336 | 0.07152 | 0.5878 | cm.bpm.24hrs: 0.1537; cm.cam.24hrs: 0.1401; cm.decay.rise.24hrs: 0.254; cm.mii.24hrs: 0.6195; cm.mito.24hrs: 0.2384; cm.spacing.cv.24hrs: 0.3725; cm.tc.24hrs: 0.241; endo.cyto.24hr: 0; endo.mito.24hr: 0; endo.mitoint.24hr: 0; endo.nma.24hr: 0; endo.tc.24hr: 0; endo.mtl.18hr: 0; endo.tlps.18hr: 0; endo.tta.18hr: 0; endo.ttl.18hr: 0 |
| O=S(=O)(O)Oc1cccc(-c2ccc(Cl)cc2)c1 [3'-PCB 3 sulfate] | 0 | 0 | 0 | 0 | 0 | 0.4173 | 0 | 0 | 0 | 0 | 0 | 0.07423 | 0 | 0 | 0.03988 | 0 | 0 | 0 | 0 | 0 | cm.bpm.24hrs: 0; cm.cam.24hrs: 0; cm.decay.rise.24hrs: 0; cm.mii.24hrs: 0; cm.mito.24hrs: 0; cm.spacing.cv.24hrs: 0; cm.tc.24hrs: 0; endo.cyto.24hr: 0; endo.mito.24hr: 0; endo.mitoint.24hr: 0; endo.nma.24hr: 0; endo.tc.24hr: 0; endo.mtl.18hr: 0.5389; endo.tlps.18hr: 0.1522; endo.tta.18hr: 0.1963; endo.ttl.18hr: 0.2248 |
| O=S(=O)(O)Oc1ccc(-c2ccc(Cl)cc2)cc1 [4'-PCB 3 sulfate] | 0 | 0 | 0 | 0 | 0 | 0.4903 | 0 | 0.272 | 0 | 0.6628 | 0.2569 | 0.1909 | 0 | 0.4625 | 0 | 0 | 0.1039 | 0 | 0 | 0 | cm.bpm.24hrs: 0; cm.cam.24hrs: 0; cm.decay.rise.24hrs: 0; cm.mii.24hrs: 0.1652; cm.mito.24hrs: 0; cm.spacing.cv.24hrs: 0; cm.tc.24hrs: 0; endo.cyto.24hr: 0; endo.mito.24hr: 0; endo.mitoint.24hr: 0; endo.nma.24hr: 0; endo.tc.24hr: 0; endo.mtl.18hr: 0.3281; endo.tlps.18hr: 0.3444; endo.tta.18hr: 0.1625; endo.ttl.18hr: 0.2037 |
